Where two headings read alike, the source gives them in different places.
Key:
OGD/R-induced H9c2 cells = assay: Protective effect on OGD/R-induced H9c2 cells (CCK-8 cell viability); assay type: cell-based, rat; conditions: 1, 10, 25, 50 and 100 μM prior to OGD/R, vs model group
Description: (§1) Rat myocardial H9c2 cells (purchased from China Infrastructure of Cell Line Resources, Institute of Basic Medical Sciences, Chinese Academy of Medical Sciences) were cultured in DMEM supplemented with 10% fetal bovine serum (FBS), Penicillin (100 U/mL), and Streptomycin (100 μg/mL) at 37 °C under a humidified atmosphere of 5% CO2 and 95% air. For OGD/R treatment, H9c2 cells were cultured in glucose-free DMEM under hypoxic conditions (95%N2 + 5%CO2) for 4 h at 37 °C followed by complete medium under normal conditions with air (95%) and CO2 (5%) for 2 h. A control group was maintained under normal culture conditions (with glucose-containing DMEM and 5% CO2) without undergoing OGD/R treatment. CCK8 was used to assess cell viability. After treatment, H9c2 cells were seeded in 96-well plates, with each well supplemented with 10 μL of CCK-8 solution and then incubated for 1 h. Finally, the absorbance at 450 nm was detected by a microplate reader (Model […] 200 PRO, TECAN, Grodig, Austria).
(§2) When evaluating the cytotoxicities of the absorbed compounds, the H9c2 cells were seeded in 96-well plates at a density of 1 × 10^4 cells/well; when cells reached 80% confluence, they were treated with 25 and 50 μM of the 24 analytes to screen the non-toxic concentration ranges. Afterward, the protective effects were verified by assessing the cell viability when treating with different concentrations (1, 10, 25, 50, and 100 μM) of the analytes prior to OGD/R treatment.

[1] = rat, in vivo
Description: (§3) Ion source parameters were set as follows: temperatures of drying gas and sheath gas were 300 °C and 300 °C, flow rates of drying gas and sheath gas were 7 L/min and 11 L/min, the nebulizer was set at 35 psig, capillary voltage was 3500 V (−), and nozzle voltage was 2000 V (−). […] Chromatographic separations were conducted on a ZORBAX Eclipse Plus C18 column (3.0 × 50 mm, 1.8 μm, Agilent Technologies, California, USA). The mobile phase was composed of 0.1% aqueous FA (A, (v/v)) and 0.1% formic acid methanol (B), the flow rate was set at 0.5 mL/min, and the column oven was maintained at 40 °C.
(§4) Protein precipitation was carried out for each time point for plasma samples, calibration samples, or QC samples by introducing four volumes of acetonitrile containing 400 ng/mL of icariin. Then, 10 μL 10% aqueous ascorbic acid (v/v) was spiked into each sample to prevent the oxidation of phenolic compounds. […] An aliquot (450 μL) of the supernatant was transferred and dried under nitrogen vacuum.
(§5) The pharmacokinetic parameters were calculated by DAS software (version 2.0) for a non-compartmental analysis.

H9c2 cells = assay: Cytotoxicity on H9c2 cells (CCK-8); assay type: cell-based, rat; conditions: for Inhibition rate: H9c2 cells, n=3
Description: as §1
as §2, with “they were treated with 25 and 50 μM of the 24 analytes to screen the non-toxic concentration ranges.” left out

[2] = Pharmacokinetic study in rats after oral administration of QSG
Description: as §3, §4, §5

[3] = Concentrations of 24 analytes in QSG treated plasma (Table S5); conditions: QSG treated plasma, n = 5
[4] = rat plasma, single oral 7 g/kg QSG, n = 6

## O=c1cc(-c2ccc(O)c(O)c2)oc2cc(O[C@@H]3O[C@H](CO)[C@@H](O)[C@H](O)[C@H]3O)cc(O)c12 [Luteoloside]
OGD/R-induced H9c2 cells
  H9c2 cell survival after OGD/R (in words): significantly improve H9c2 cell survival rates
[1]
  Oral relative bioavailability: 0.019%
[1]; po
  AUC0→∞: 20.86 ng·h/mL
  Shape of the plasma concentration–time curve (in words): Double peaks
[1]; po, 7 g/kg
  AUC0→t: 12.39 ± 2.708 ng·h/mL
  AUC0→∞: 20.86 ± 6.586 ng·h/mL
  T1/2: 21.76 ± 16.85 h
H9c2 cells; 25 μM
  Inhibition rate: -4.2 ± 4.7%
H9c2 cells; 50 μM
  Inhibition rate: 8.1 ± 5.7%
H9c2 cells; 100 μM
  Inhibition rate: 4.1 ± 1.7%

## Salvianolic acid B
[2]; Table S12, rats, oral QSG
  AUC0→∞: 2176 ng·h/mL
[2]; exposure (AUC0→∞) of the component in rats after oral QSG, as used for ECI
  AUCi: 2176
[2]; exposure level (AUC0→∞) compared with the dosage of each compound in QSG
  Oral relative bioavailability: 0.013%
[2]; from Table S12, rats, oral QSG
  Absorption efficiency / bioavailability (in words): much lower than most compounds
[2]; [4]
  AUC0→t: 1475 ± 187.4 ng·h/mL
  AUC0→∞: 2176 ± 842.3 ng·h/mL
  Cmax: 205.3 ± 65.50 ng/mL
  MRT: 11.08 ± 1.809 h
  T1/2: 10.83 ± 5.740 h
  Tmax: 0.566 ± 0.182 h
[2]; rat plasma, single oral 7 g/kg QSG, n = 6, listed as salvianolic acid B
  MRT: more than 10 h
[2]; rats, oral QSG
  Shape of the plasma concentration–time curve (in words): Double peaks
[2]; rats, oral QSG, 11 analytes
  Share of the total exposures (AUC0→∞) of all analytes: 43.48%
OGD/R-induced H9c2 cells
  H9c2 cell survival after OGD/R (in words): significantly improve H9c2 cell survival rates
[3]; 0.08 h
  Concentration: 68.337 ± 49.223 ng/mL
[3]; 0.17 h
  Concentration: 115.490 ± 60.235 ng/mL
[3]; 0.5 h
  Concentration: 174.763 ± 84.875 ng/mL
[3]; 1 h
  Concentration: 83.989 ± 21.934 ng/mL
[3]; 2 h
  Concentration: 47.989 ± 9.996 ng/mL
[3]; 4 h
  Concentration: 34.225 ± 16.349 ng/mL
[3]; 8 h
  Concentration: 91.217 ± 8.136 ng/mL
[3]; 12 h
  Concentration: 56.609 ± 10.151 ng/mL
H9c2 cells; 25 μM
  Inhibition rate: -38.9 ± 5.2%
H9c2 cells; 50 μM
  Inhibition rate: -17.1 ± 7.2%
H9c2 cells; 100 μM
  Inhibition rate: 0.1 ± 3.2%
H9c2 cells; CCK-8, compared to the control group
  Effect on H9c2 cell viability / cytotoxicity (in words): significantly enhanced cell viabilities

Reference: PMC12567096, “An Efficacy- and In Vivo Exposure-Oriented Integrated Study to Investigate the Effective Components of Qishen Granule” (Pharmaceuticals, 2025)
